This note sets out measurements from a melting point compilation (Tetko et al.; mined from patent text by program, amines drawn as free bases though some values may be those of a salt).

SMILES strings stand for the structures.

The compound `CC1(CN=[N+]=[N-])COC(Cn2ccnc2)(c2ccc(Cl)cc2Cl)OC1` (centres undefined) registered a melting point of 132 to 133 °C.
Then `O=S(=O)(c1ccccc1)C(Cc1ccccc1)c1ccc(C(O)(C(F)(F)F)C(F)(F)F)cc1` (centres undefined), with 157 °C.
With `Cc1[nH]c2ccccc2c1C=C1SC(=S)N(CC(=O)O)C1=O` the figure was 291 to 292 °C; with `CC1(C)COc2cc3ccccc3c(=O)n21`, 91 to 92 °C.
Take `C=CCOc1cccc2oc(C(=O)OCC)cc(=O)c12`: the melting point was in the range of 122 to 123 °C.
Then `Cn1c(SSc2c(C(=O)Nc3ccccc3)c3cc(O)ccc3n2C)c(C(=O)Nc2ccccc2)c2cc(O)ccc21`, with 185 to 187 °C; and `CCc1c(Oc2ccc(C(F)(F)F)cc2[N+](=O)[O-])n[nH]c1C`, with 92 to 93 °C.
`C[C@H]1Cn2c(=O)[nH]c3c(Br)ccc(c32)CN1C(=O)OC(C)(C)C` yielded a melting point of 229 °C.
With `CC(NC(Nc1cc(C(F)(F)F)cc(C(F)(F)F)c1)=C(C#N)S(=O)(=O)c1ccc(Cl)cc1)C(C)(C)C` (centres undefined) the figure was 156 to 158 °C.
With `NS(=O)(=O)c1cc(C(=O)c2cc3ccccc3o2)ccc1Cl` the figure was 167 to 170 °C; with `Nc1ccc(-c2nnn(-c3ccc(C(F)(F)F)cc3F)c2N)cc1`, 164 to 165 °C.
With `Nc1ccc(OCc2ccccc2)cc1C=C(Br)Br` the figure was 67 to 68 °C.
Take `CN1CCN(CCOc2cccc3c2c2cccc4c2n3C(c2ccccc2)CO4)CC1` (centres undefined): the melting point came out at 57 °C.
With `Cc1ccc2ccc(C)c(O)c2c1` the figure was 124 to 125 °C; with `O=C(SCCCC(=O)N1CCC[C@H]1C(=O)O)c1ccccc1`, 159 to 161 °C; with `Nc1nc(-c2ccc(NC(=O)CN(Cc3ccccc3)C(=O)C3CCCCC3)cc2)cs1`, 214 to 216 °C.
With `CCCCCCCCCCCCOCC(COCCCCCCCCCCCC)(CC(=O)O)CC(=O)O` the figure was 80 to 82 °C; with `CCOC(=O)C(=CNc1ccc(F)c(N2CCN(C(=O)OCC)CC2)n1)C(=O)OCC`, 144 to 145 °C.
`COc1ccc2c(N)c(C(=O)Nc3ccc(Cl)cc3Cl)oc2c1`: the melting point was in the range of 187 to 188 °C.
With `COC(CCC(N)=C(SC)S(C)=O)OC` (centres undefined) the figure was 86 to 87 °C; with `CCCCCCN(Cc1ccc(F)cc1)c1ccc(C(=O)OCC)cc1`, 41 to 42 °C.
In the case of `CCCCCC(=O)Nc1ccc(C(=O)NN=C2C(=O)Nc3ccc(I)cc32)cc1`, the melting point was determined as 305 °C.
With `Nc1nccc(-c2c(-c3ccc(F)cc3)ncn2C2CCNCC2)n1` the figure was 199 to 200 °C.
With `COc1cccc(COc2ccc3oc(-c4nc(C(C)(C)C)cs4)cc3c2)c1OC(C)C(N)=O` (centres undefined) the figure was 155 to 156 °C; with `O=c1c2cc(O)ccc2[nH]c2c([N+](=O)[O-])ccc(Cl)c12`, more than 325 °C.
As for `CCc1nc(Cc2ccc(NC(=O)/C=C/c3cnn(C)c3-c3ccc(F)cc3)cc2)no1`, the melting point lay within 150 to 152 °C.
Then `Cc1cc(NNC(=O)OC(C)(C)C)c([N+](=O)[O-])c(N(Cc2ccccc2)Cc2ccccc2)n1`, with 60 to 67 °C; and `C[C@H](O)[C@H]1C(=O)N2C(C(=O)OCc3ccc([N+](=O)[O-])cc3)=C(SCCNC(=O)COc3ccccc3)C[C@H]12`, with 115 to 118 °C; and `O=C(NN=Cc1cccc2ccccc12)c1cc2ccccc2cc1O`, with 214 °C.
With `CC1(C)c2cc(I)ccc2-c2ccc(I)cc21` the figure was 195 °C; with `O=[N+]([O-])c1cc(C(F)(F)F)ccc1Sc1nc(-c2ccc(Cl)cc2)c(-c2ccc(Cl)cc2)[nH]1`, 264 to 266 °C; with `CC(CCCc1cccnc1)NC(=O)C(O)c1ccccc1` (centres undefined), 144 to 146 °C.
With `Cc1nc2cccc(OCC(C)(C)C(=O)NC3CCC3)c2c(N)c1C(=O)O` the figure was 183 to 187 °C.
The compound `O=C1NC(=O)C(Cc2ccc(C(=O)CCc3ccccc3)cc2)S1` (centres undefined) came in with a melting point of 119 to 121 °C.
Regarding `OC(Cc1ccc(F)cc1)(Cn1cncn1)c1ccccc1` (centres undefined), the melting point was 116 to 118 °C.
Then `Cc1nn(C2CCCC2C)c(N)c1C#N` (centres undefined), with 158 to 159 °C; and `COC(=O)c1cc2c(cc1O)CCCC2`, with 41 to 42 °C.
Regarding `N#Cc1cnc2cc(Br)ccc2c1Nc1ccc(Oc2ccccc2)cc1`, the melting point lay within 205 to 207 °C.
Then `Cc1cc(Oc2ccc([N+](=O)[O-])c(F)c2)n[nH]1`, with 80 to 83 °C; and `O=c1n(CCCF)nnn1-c1cc(Oc2ccc(O)cc2)c(Cl)cc1F`, with 157 to 159 °C.
With `COc1ccc(-n2cnc3ccc(-c4nnc(SC)o4)cc32)cc1` the figure was 187 to 188 °C; with `C=CCc1cc(C=C2SC(=S)NC2=O)cc(CC=C)c1O`, 157 to 160 °C.
Then `Cc1cc(C)cc(S(=O)(=O)n2c(CCCC(=O)O)cc3cc(Cl)ccc32)c1`, with 204 to 206 °C; and `CCCCn1c(=O)c(=O)[nH]c2c3ccccc3ccc21`, with 269 °C; and `CCc1cccc(C)c1CNc1cc(Br)cc2c1nc(C)n2C`, with 145 to 147 °C.
In turn, `COc1cc(C(=O)c2ccc(Cl)cc2)cc([N+](=O)[O-])c1O` yielded a melting point of 128 to 131 °C.
Then `O=C1c2ccccc2C(=O)N1OCF`, with 126 to 127 °C; and `CCCc1nn(C)c2c(=O)n(CCCOc3ccc(SC(C)(C)C(=O)OCC)cc3)c(C)nc12`, with 52 to 54 °C.
Compound `CN(Cc1cc(C(F)(F)F)cc(C(F)(F)F)c1)C(=O)c1c(-c2ccc(F)cc2)c2ccc(=O)n(C)c2c(=O)n1C` yielded a melting point of 210 to 212 °C.
The compound `CN(C(=O)C(C)(C)c1cc(C(F)(F)F)cc(C(F)(F)F)c1)c1cnc(NCCO)cc1-c1ccccc1Cl` showed a melting point of 117 to 118 °C.
For the compound `Cc1ccc2ncn([C@H](C)[C@](O)(Cn3cncn3)c3ccc(F)cc3F)c(=O)c2c1`, the melting point lay in the range of 189 to 190 °C.
Turning to `O=C(O)c1cc(OCc2ccccc2)c(C(=O)c2ccccc2)c([N+](=O)[O-])c1`, the melting point was 205 to 207 °C.
With `N#CC1CN1C(=O)NC(=O)C=Cc1ccccc1` (centres undefined) the figure was 134 to 136 °C; with `NC(=O)C=Cc1cccc(NC(=O)c2cc(-c3cccc(F)c3)ccc2F)c1`, 216 to 218 °C.
Then `NC(=S)c1c[nH]cc1-c1cccc(Cl)c1Cl`, with 128 to 132 °C; and `O=c1c2cccc3ncc(c(=O)n1CCCCCNS(=O)(=O)C(F)(F)F)n32`, with 166 to 167 °C; and `CN(C)Cc1ccnc(OCCCNc2c(N)c(=O)c2=O)c1`, with 212 to 214 °C.
With `N#Cc1ncn(Cc2ccccc2)c1C#N` the figure was 123 to 125 °C; with `CC(C)(C)SC1CN(C(=O)NCCN2C(=O)c3ccccc3C2=O)CC1NS(=O)(=O)c1ccc(Oc2ccccc2)cc1` (centres undefined), 105 to 106 °C; with `CN1CCC(N2C(=O)c3cc(Cl)ccc3Sc3ccccc32)CC1`, 164 to 165 °C.
In the case of `CC[C@H](C)CNC(=O)C[C@H](O)[C@H](CC(C)C)C(=O)OC(C)(C)C`, the melting point fell in the range of 83 to 84 °C.
Regarding `CC(=O)OCCOCn1cnc2c(N)nc(N)nc21`, the melting point was 69 to 70 °C.
With `c1ccc(C(OC2CCNCC2)c2ccccc2)cc1` the figure was 56 °C.
With `CCCCc1nc2sccc2c(=O)n1CCC` the figure was 70 to 72 °C.
Then `COC(=O)[C@@H](OS(=O)(=O)c1ccc(C)cc1)[C@H](O)c1ccc(F)cc1`, with 122 to 124 °C; and `CN(C)CCNCc1ccc(-c2cc3ncnc(Nc4ccc5[nH]ccc5c4)c3s2)cc1`, with 170 to 183 °C.
As to `O=S(=O)(F)c1cc2nc(Cl)c(Cl)nc2cc1Cl`, the melting point lay within 109 to 111 °C.
`O=C(Cc1ccc(I)cc1)N1CCOCC1` registered a melting point of 114 to 117 °C.
`COP(=S)(OC)Oc1cc(-c2ccccc2)sc1C#N` came in with a melting point of 95 °C.
With `CCOC(=O)c1cnoc1-c1ccc(F)c(F)c1` the figure was 64 to 65 °C; with `S=C1Nc2ccc(Cl)cc2Nc2ccccc21`, 274 to 275 °C; with `CCCCCCc1ccc(C#Cc2ccc(C=O)cc2)cc1`, 67 °C.
With `Cn1cnc(=O)[nH]c1=O` the figure was 213 to 214 °C; with `Nc1ccc(C(O)C(CO)N2CCC(Cc3ccccc3)CC2)cc1` (centres undefined), 62 to 68 °C; with `O=c1c(Br)c(OCc2cccc(Cl)c2)ccn1Cc1cccc(F)c1`, 149 to 153 °C.
On to `C#CCN(Cc1cc2c(=O)n(CCN(C)C)c(CN3CCCCC3)nc2cc1Cl)c1ccc(C(=O)OC(C)(C)C)cc1`, for which the melting point lay in the range of 75 to 77 °C.
Compound `CC(=O)C1CCC2C3CCC4CC(O)C(Br)CC4(C)C3CCC12C` (centres undefined) returned a melting point of 171 to 175 °C.
Then `COc1ccc(Cn2c3c(c4cc(OC)c(OC)cc4c2=O)C(=O)c2cc4c(cc2-3)OCO4)cc1`, with 360 to 364 °C; and `Brc1cccc(C2Cc3cnc(Nc4ccc(CCNCCN5CCOCC5)cc4)nc3-c3ccccc32)c1` (centres undefined), with 85 to 87 °C.
Then `CNS(=O)(=O)Cc1ccc2[nH]cc(CCN=CNc3ccccc3)c2c1`, with 72 to 73 °C; and `CC(C)CCCC(C)C1CCC2C3C=CC4=CC(O)CC(O)C4(C)C3CCC12C` (centres undefined), with 120 to 121 °C.
With `NC(=O)c1ccccc1NC(=O)c1ccc2c(c1)CCO2` the figure was 230 to 235 °C.
For the compound `COC(C(=Cc1ccc(Cl)cc1)n1cncn1)C(C)(C)C` (centres undefined), the melting point is 63 to 66 °C.
Then `CCC(=S)c1ccc(C)cc1`, with 55 to 56 °C; and `COC(=O)C1=C(c2cc(OC)c(OC)c(OC)c2)c2ccccc2S(=O)(=O)N1Cc1ccc2c(c1)OCO2`, with 182 to 183 °C.
`CCCCOc1nc(N)c2[nH]c(=O)n(CCCNS(=O)(=O)c3cccc(CC(=O)OC)c3)c2n1` gave a melting point of 218 to 219 °C.
With `COC=C1C(=O)NC(=O)c2ccc(OC)cc21` the figure was 245 to 247 °C; with `CON=C(C(=O)OC)c1ccccc1C#CC(=O)c1ccccc1`, 89 to 94 °C.
Then `Cc1nc2cc(/C=C/C(=O)NO)ccc2c(=O)n1CCc1ccccc1`, with 227 to 229 °C.

For orientation: melting point means the temperature, or range, at which the solid turns liquid.
